Data from paper PMC12535377, “Synaptic and intrinsic plasticity mediated by CCK-type signaling coordinates behavioral changes during motivational state shifts” (Cell reports, 2025).
Read-outs that look alike come from different tables or passages of the source. Non-standard residues stand in square brackets, D forms with d. Residues, ends and D or L forms follow the SMILES beside them. sY = N[C@@H](Cc1ccc(OS(=O)(=O)O)cc1)C(=O)O

Key:
apCCKR2 = molecular target: T1, apCCKR2 (Aplysia californica, UniProt A0ABM0ZX06); assay: IP1 accumulation assay, apCCKR2 in CHO-K1 cells; type: cell-based; conditions: CHO-K1 cells transfected with receptor and promiscuous Gαq
T1 sequence (A0ABM0ZX06 1-377): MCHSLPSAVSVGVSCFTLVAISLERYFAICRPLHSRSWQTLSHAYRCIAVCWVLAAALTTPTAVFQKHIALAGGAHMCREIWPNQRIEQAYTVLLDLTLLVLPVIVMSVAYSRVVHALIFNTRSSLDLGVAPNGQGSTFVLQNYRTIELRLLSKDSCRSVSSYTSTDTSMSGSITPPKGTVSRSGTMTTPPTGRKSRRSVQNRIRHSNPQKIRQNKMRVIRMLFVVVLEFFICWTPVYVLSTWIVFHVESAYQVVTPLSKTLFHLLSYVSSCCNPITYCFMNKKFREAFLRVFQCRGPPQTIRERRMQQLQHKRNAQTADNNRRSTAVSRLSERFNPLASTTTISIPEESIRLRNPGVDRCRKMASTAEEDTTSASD
Procedure: We tested receptor activation using the IP1 (inositol monophosphate) accumulation assay that measures IP1 generated in the Gαq pathway (see STAR Methods).
CHO-K1 cells were cultured in F-12K medium (Gibco, 21127–022) with 10% fetal bovine serum at 37°C in 5% CO2. Before transfection, cells were grown in 35 mm diameter tissue culture-treated dishes to 85% confluence. For transfection, 1.5 μg apCCKR plasmids or control plasmids (in pcDNA3.1(+) vector) and 1.5 μg promiscuous Gαq-family protein (in pcDNA3.1(+) vector) were mixed with 200 μL Opti-MEM (Gibco, 11058021), and 8 μL Turbofect (Thermo Fisher Scientific, R0531). This promiscuous Gαq protein contains substitutions to increase promiscuity,[148] and could bind to most GPCRs, ensuring an IP1 response when a potential ligand binds to its specific GPCR, irrespective of the GPCR’s normal association with any specific Gα proteins. The DNA mixture was incubated at room temperature for 15 min and then added dropwise to the cells in F-12K medium with 10% FBS (no antibiotics), followed by incubation at 37°C in 5% CO2 overnight. The next day, cells were detached using trypsin and reseeded in white 96-well half-area tissue culture-treated plates (Corning, 3688) at a density of 20,000 cells per well in F-12K and 10% FBS, and incubated at 37°C in 5% CO2 overnight. Activation of putative apCCK or related receptor was detected by monitoring IP1 accumulation using IPOne Detection Kit (Cisbio, 62IPAPEB), as previously described.[64],[65],[141],[149],[150]
Dose-response curves and bar graphs for experimental data were plotted using Prism software (GraphPad version 8). Data are presented as mean ± SEM of at least three independent experiments, except that LogEC50 values reported in the main text are the mean ± standard deviation (SD) from at least three independent experiments. Statistical tests were performed using Prism software. They included Student’s t-test, one-way or two-way ANOVA, as appropriate. […] Electrophysiological recordings were digitized online using AxoScope software version 10.7 (Molecular Devices, LLC, Sunnyvale, CA) and were plotted by CorelDraw version 2018 (Corel Corp., Ottawa, Canada).

Aplysia californica = assay: Feeding behavior (food intake) in intact animals after peptide injection; type: in vivo; conditions: for Behavioral effect (food intake), summary grade: Table S1 summary in words; for Food intake (seaweed consumed in a single meal): injection into hemocoel of apCCK solutions (10^-7 M or 10^-6 M) vs ASW, food-deprived animals
From the text: To explore the role of apCCKs as satiety signals in mollusks, we examined their effects on food intake. […] The remaining four forms had no impact (Figure S9). Moreover, [sY6, sY8]-apCCK1 slowed food consumption (Figure 2E), which could stem, in part, from a shift from ingestive to egestive patterns as the meal progressed. [sY6, sY8]-apCCK1 also extended the duration to consume one strip of seaweed compared to controls (Figure 2F), further mimicking natural satiety.
Behavioral experiments were conducted in two batches, each using animals from separate shipments. In the first batch (Figure 2), animals were larger, with an average body weight of 93.3 ± 4.8 g, and were food-deprived for 7 days prior to testing. In the second batch (Figure S9), animals were smaller (average weight: 70.6 ± 4.0 g) and were food-deprived for 5 days to account for their reduced size. In each experiment, two weight-matched animals were housed in separate round net cages (17 cm diameter and 17 cm height) that were placed in a 500 L tank filled with circulating aerated ASW (14°C–16°C). To ensure that the animals were responsive to food, they were first pretested with a small piece of seaweed. After this pretest, in each pair, one animal was injected (into the hemocoel using a syringe needle) with apCCKs freshly dissolved in 1.5 mL ASW, whereas the other was injected with 1.5 mL of ASW. Three minutes later, the feeding session commenced. Animals were hand-fed seaweed (Shirako, Tokyo, Japan) cut in 1 × 10 cm strips, weighing ~0.1 g, increasing 10-fold when hydrated. This hand-feeding approach has been used in prior study of Aplysia feeding behavior.[146],[147] The consumed seaweed amount was converted to hydrated weight and normalized to the animal’s body weight. Each strip of seaweed was delivered to the mouth area with forceps. Feeding was terminated after 1 h or when animals stopped ingesting seaweed for 3 min.

[1] = log[EC50] with negative sign, mean ± SD, at least three independent experiments, SD, read-out: apCCKR2: log[EC50] (converted)
[2] = average of at least three independent experiments, read-out: apCCKR2: EC50

Molecule	EC50 (apCCKR2; [1]) [nM]	Behavioral effect (food intake), summary grade (Aplysia californica)	Food intake (seaweed consumed in a single meal) (Aplysia californica)	EC50 (apCCKR2; [2]) [nM]
CC[C@H](C)[C@H](NC(=O)CNC(=O)[C@H](Cc1ccc(OS(=O)(=O)O)cc1)NC(=O)[C@H](CC(=O)O)NC(=O)CNC(=O)[C@H](Cc1ccc(OS(=O)(=O)O)cc1)NC(=O)[C@@H](N)CO)C(=O)NCC(=O)NCC(=O)NCC(=O)N[C@@H](CCCNC(=N)N)C(=O)N[C@@H](Cc1ccccc1)C(N)=O [[sY2, sY5]-apCCK2] (H-S[sY]GD[sY]GIGGGRF-NH2)	355	Weak	significant but weaker effects	
CC[C@H](C)[C@H](NC(=O)CNC(=O)[C@H](Cc1ccc(O)cc1)NC(=O)[C@H](CC(=O)O)NC(=O)CNC(=O)[C@H](Cc1ccc(OS(=O)(=O)O)cc1)NC(=O)[C@@H](N)CO)C(=O)NCC(=O)NCC(=O)NCC(=O)N[C@@H](CCCNC(=N)N)C(=O)N[C@@H](Cc1ccccc1)C(N)=O [[sY2]-apCCK2] (H-S[sY]GDYGIGGGRF-NH2)	1100	No effect	did not influence feeding	1400
CC[C@H](C)[C@H](NC(=O)CNC(=O)[C@H](Cc1ccc(OS(=O)(=O)O)cc1)NC(=O)[C@H](CC(=O)O)NC(=O)CNC(=O)[C@H](Cc1ccc(O)cc1)NC(=O)[C@@H](N)CO)C(=O)NCC(=O)NCC(=O)NCC(=O)N[C@@H](CCCNC(=N)N)C(=O)N[C@@H](Cc1ccccc1)C(N)=O [[sY5]-apCCK2] (H-SYGD[sY]GIGGGRF-NH2)	38.9	Moderate	significant but weaker effects	49
H-SYGDYGIGGGRF-NH2 [apCCK2]		No effect	did not influence feeding	> 10000
